The values that follow come from patent US20100285959A1, “HERBICIDAL MIXTURES” (priority 2006, published 2010).

The test system of data set [1] is winter wheat (TRZAW). Put plainly: Test 21 growth chamber, postemergence. In kind it is in vivo, Triticum aestivum. To be noted: 19 DAA. The procedure: A test was conducted to evaluate the effects on winter barley (HORVW, Hordeum vulgare L.), winter wheat (TRZAW, Triticum aestivum L.), and several weed species, of mixtures of Compound 2 with the commercial herbicide (2,4-dichlorophenoxy)acetic acid (2,4-D), an auxin mimic. […] Plants were treated postemergence at the 2-4 leaf growth stage, and each treatment was replicated one time. […] Plants were watered as needed. […] Results are from single replicates.

Data set [2] has as its system redroot pigweed (AMARE). The data set can be described thus: Test 2 field trial, preemergence. Type of data set: in vivo, Amaranthus retroflexus. The arrangement: scale not given here. From the text: Corn seeds (hybrid ‘Pioneer 31G96’) were planted in mid spring season, 3.8 cm deep in a clay loam soil having 2% organic matter and a pH of 6.6. Plots were 6.1 m long by 3.0 m wide with rows spaced 76 cm apart. Seeds were spaced 15 cm apart within the rows. The field was managed using conventional tillage practices. […] A few of the weed species could not be evaluated at every timing. […] Results are the means of the three replicates.

The test system of data set [3] is tropical spiderwort (COMBE). The data set can be described thus: Test 12 field trial, preemergence. In kind it is in vivo, Commelina benghalensis. The arrangement: scale not given here. To be noted: Cpd 2 or Cpd 1 62 g a.i./ha, Diuron 2000 g a.i./ha. From the text:
(§1) In early-mid spring season, corn seeds (hybrid ‘Pioneer 3041’) were planted 5 cm deep and sugarcane nodes (variety RB-72.454) were planted 10 cm deep in separate plots in a clay soil having 2.6% organic matter and a pH of 5.6. Plots were 24 m long by 1.5 m wide with rows spaced 80 cm (corn) or 140 cm (sugarcane) apart. Corn seeds were spaced 15 cm apart and sugarcane nodes were spaced 10 cm apart within the rows. At the same time, weed seeds were broadcast over the surface of separate plots without a crop, one weed species per plot. The weed plots were rotary tilled to incorporate the weed seeds to a variety of depths. The field was managed using conventional tillage practices.

Data set [4] has as its system common blackjack (BIDPI). The data set can be described thus: Test 12 field trial, preemergence. In kind it is in vivo, Bidens pilosa. Further details: scale not given here. To be noted: Cpd 2 or Cpd 1 62 g a.i./ha, Diuron 2000 g a.i./ha.
From the text: as §1

In data set [5] the test system is common ragweed (AMBEL). Put plainly: Test 14 field trial, preemergence, growth as percent of control. Type of data set: in vivo, Ambrosia artemisiifolia. The text has this:
Corn seeds (hybrid ‘Pioneer 31G96 RR’) were planted in mid spring season, 3.8 cm deep in a clay loam soil having 2% organic matter and a pH of 6.6. Plots were 6.1 m long by 3.0 m wide with rows spaced 76 cm apart. Seeds were spaced 15 cm apart within the rows. The field was managed using conventional tillage practices. […] Yellow nutsedge was only evaluated 19 and 28 days after application, and ivyleaf morningglory could only be evaluated 28 days after application. […] Results are the means of the three replicates. This growth inhibition data was converted to results in the form of “plant growth as a percent of control plant growth” using the calculation “100 minus growth inhibition”. […] For “growth as a percent of control” data, Colby's Equation calculates the expected additive effect of herbicidal mixtures having two active ingredients as follows:
Ga+b=GaGb/100 • wherein Ga+b is the growth as a percent of control of plants treated with the mixture expected from additive contribution of the individual components, • Ga is the observed growth as a percent of control of plants treated with the first active ingredient at the same use rate as in the mixture, and • Gb is the observed growth as a percent of control of plants treated with the second active ingredient at the same use rate as in the mixture. For mixtures having three active ingredients, Colby's Equation to calculate the expected additive effect of herbicidal mixtures is as follows:
Ga+b+c=GaGbGc/10,000 • wherein Ga and Gb are as defined above and • Ga+b+c is the growth as a percent of control of plants treated with the mixture expected from additive contribution of the individual components, and • Gc is the observed growth as a percent of control of plants treated with the third active ingredient at the same use rate as in the mixture. When these two forms of Colby's Equation are used, if the observed effects on weeds are less than the expected values, the mixture is synergistic.

Data set [6] deals with wild radish (RAPRA). The data set can be described thus: Test 7 field trial, preemergence. Type of data set: in vivo, Raphanus raphanistrum. On the procedure:
Plots were 7.6 m long by 3.0 m wide with rows spaced 76 cm apart. Seeds were spaced 15 cm apart within the rows. The field was managed using conventional tillage practices. […] Wild radish was evaluated 14 and 28 days after application. […] Results are the means of the three replicates.

Data set [7] has as its system red deadnettle (LAMPU). Put plainly: Test 3 field trial, emerged weeds before corn planting. In kind it is in vivo, Lamium purpureum. The settings on record: Cpd 2 100, glyphosate 1540, paraquat 1150 g a.i./ha, alone or combined. From the text:
Corn seeds (hybrid ‘Pioneer 33J56’) were planted in early spring season, 3.8 cm deep in a silt loam soil having 2.4% organic matter and a pH of 6. Plots were 6.1 m long by 2.7 m wide with rows spaced 91.4 cm apart. The field was managed using no-till practices. […] Compound 2 and paraquat treatments, alone and in combination, also included a surfactant. Glyphosate, alone and with Compound 2, included ammonium sulfate in the treatment mixture. […] The effects on the weeds in the treated plots and untreated control plots were recorded 30, 42, 46 and 68 days after application. Most of the weed species could not be evaluated at every timing. Corn response was not evaluated because the growth was highly variable depending on the efficacy of the weed control treatments. […] Results are the means of the three replicates.

Setting [8] is: 28 DAA, g a.i./ha: Cpd 2 25, Atrazine 250.
Where [9] appears, read: 28 DAA, g a.i./ha: Cpd 2 50, Atrazine 500.
Where [10] appears, read: 28 DAA, g a.i./ha: Cpd 2 75, Atrazine 750.
Where [11] appears, read: 28 DAA, g a.i./ha: Cpd 2 100, Atrazine 1000.
Where [12] appears, read: 28 DAA, g a.i./ha: Cpd 2 150, Atrazine 1500.
The mark [13] stands for this setting: 55 DAA, g a.i./ha: Cpd 2 25, Atrazine 250.
The mark [14] stands for this setting: 55 DAA, g a.i./ha: Cpd 2 50, Atrazine 500.
Setting [15] is: 55 DAA, g a.i./ha: Cpd 2 75, Atrazine 750.
The mark [16] stands for this setting: 55 DAA, g a.i./ha: Cpd 2 100, Atrazine 1000.
The mark [17] stands for this setting: 55 DAA, g a.i./ha: Cpd 2 150, Atrazine 1500.

The structures appear in SMILES notation.

Take `O=C(O)COc1ccc(Cl)cc1Cl` [2,4-D, (2,4-dichlorophenoxy)acetic acid]: the results for the “Postemergence TRZAW Obs” value in data set [1] (2,4-D alone 125 g a.i./ha) and in data set [1] (2,4-D alone 250 g a.i./ha) were 35 and 40, respectively.

Take `CCNc1nc(Cl)nc(NC(C)C)n1` [Atrazine, atrazine, reference compound]: the “AMARE Obs” value in data set [2] (setting [8]) was found to be 72; in data set [2] (setting [9]), 97; in data set [2] (setting [10]), 90; in data set [2] (setting [11]) it was 100; in data set [2] (setting [12]) it was 100; in data set [2] (setting [13]), 95. For the same compound, the “AMARE Obs” value turned out to be 99 in data set [2] (setting [14]), 100 in data set [2] (setting [15]), 100 in data set [2] (setting [16]) and 100 in data set [2] (setting [17]).

For the compound `Nc1nc(C2CC2)nc(C(=O)O)c1Cl` [Compound 1, 6-amino-5-chloro-2-cyclopropyl-4-pyrimidinecarboxylic acid], the “COMBE Obs” value in data set [3] (15 DAA) was found to be 60; in data set [3] (29 DAA), 40; in data set [3] (48 DAA), 40; in data set [3] (61 DAA), 0. The “BIDPI Obs” value in data set [4] (15 DAA) was determined as 70; in data set [4] (29 DAA) it was 80; in data set [4] (48 DAA) it was 80; in data set [4] (61 DAA), 60.

In the case of `COC(=O)c1nc(C2CC2)nc(N)c1Cl` [Compound 2, methyl 6-amino-5-chloro-2-cyclopropyl-4-pyrimidinecarboxylate], the “AMARE Obs” value in data set [2] (setting [8]) worked out at 30; in data set [2] (setting [9]), 90; in data set [2] (setting [10]), 98; in data set [2] (setting [11]) it was 93; in data set [2] (setting [12]), 82; in data set [2] (setting [13]) it was 100. The “AMARE Obs” value in data set [2] (setting [14]), in data set [2] (setting [15]), in data set [2] (setting [16]) and in data set [2] (setting [17]) was 100 each time. Besides, the “Obs growth % of control” value in data set [5] (19 DAA, 75 g a.i./ha) is 75%; in data set [5] (19 DAA, 100 g a.i./ha), 55%; in data set [5] (28 DAA, 75 g a.i./ha), 20%; in data set [5] (28 DAA, 100 g a.i./ha), 15%; in data set [5] (56 DAA, 75 g a.i./ha) it was 17%; in data set [5] (56 DAA, 100 g a.i./ha) it was 12%. For the same compound, the “COMBE Obs” value in data set [3] (15 DAA) was 50; in data set [3] (29 DAA) it was 40; in data set [3] (48 DAA), 40; in data set [3] (61 DAA) it was 40. The “RAPRA Obs” value in data set [6] (14 DAA, 125 g a.i./ha) is 35%; in data set [6] (14 DAA, 250 g a.i./ha), 53%; in data set [6] (14 DAA, 500 g a.i./ha), 73%; in data set [6] (28 DAA, 250 g a.i./ha) it was 38%; in data set [6] (28 DAA, 500 g a.i./ha) it was 58%. Further, the “LAMPU Obs” value in data set [7] (30 DAA) was 87%; in data set [7] (42 DAA), 35%; in data set [7] (46 DAA), 100%. In addition, the “Postemergence TRZAW Obs” value in data set [1] (Cpd 2 alone 16 g a.i./ha) was 50. For the same compound, the “BIDPI Obs” value in data set [4] (15 DAA) came to 60; in data set [4] (29 DAA) it was 80; in data set [4] (48 DAA), 80; in data set [4] (61 DAA), 70.

As to `O=C(O)CNCP(=O)(O)O` [Glyphosate], the results for the “LAMPU Obs” value in data set [7] (30 DAA), in data set [7] (42 DAA) and in data set [7] (46 DAA) were 70%, 52% and 97%, respectively.

Regarding `CCc1cccc(C)c1N(C(=O)CCl)[C@@H](C)COC` [S-Metolachlor, S-metolachlor, reference compound], the “Obs growth % of control” value in data set [5] (19 DAA, 1870 g a.i./ha) is 100%; in data set [5] (28 DAA, 1870 g a.i./ha), 75%; in data set [5] (56 DAA, 1870 g a.i./ha) it was 93%. The “RAPRA Obs” value in data set [6] (14 DAA, 1000 g a.i./ha) is recorded as 40%; in data set [6] (28 DAA, 1000 g a.i./ha), 15%.
